US9096594B2, “Kinase inhibitors and methods of use thereof” (priority 2012, dated 2015)
≈ marks a conversion by molar mass, not a printed value. Read-outs that look alike come from different tables or passages of the source.

Experiments:
LIMK1 = LIMK1 (Homo sapiens (Human), UniProt P53667); assay: Carna Biosciences kinase assay, LIMK1; format: biochemical
Protocol: (§1) Briefly, a selection of compounds was screened against a panel of kinases at a single concentration of 10 μM. […] This was completed utilizing one of two assays depending on the kinase being examined.
(§2) Test compounds were dissolved in and diluted with dimethylsulfoxide (DMSO) to generate a 100× sample solution. These were then diluted to 4× sample solutions in assay buffer to make the final test compound solutions. Reference compounds for assay control were prepared similarly.
(§3) A solution of IMAP binding reagent (IMAP Screening Express kit; Molecular Devices) (60 μL) was added to each well and incubated for 30 minutes.
(§4) A solution of termination buffer (QuickScout Screening assist MSA; Carna Biosciences) (60 μL) was added to each well. The entire reaction mixture was then applied to a LabChip3000 system (Caliper Life Science) and the product and substrate peptide peaks were separated and quantified.

panel of 311 kinases = assay: Kinome-wide selectivity profile (Carna Biosciences, 311 kinases); format: biochemical
Protocol: as §1, §2, §3, §4

PLK1 = PLK1 (Homo sapiens (Human), UniProt P53350); assay: Carna Biosciences kinase assay, PLK1; format: biochemical
Sequence of PLK1 (P53350 whole entry): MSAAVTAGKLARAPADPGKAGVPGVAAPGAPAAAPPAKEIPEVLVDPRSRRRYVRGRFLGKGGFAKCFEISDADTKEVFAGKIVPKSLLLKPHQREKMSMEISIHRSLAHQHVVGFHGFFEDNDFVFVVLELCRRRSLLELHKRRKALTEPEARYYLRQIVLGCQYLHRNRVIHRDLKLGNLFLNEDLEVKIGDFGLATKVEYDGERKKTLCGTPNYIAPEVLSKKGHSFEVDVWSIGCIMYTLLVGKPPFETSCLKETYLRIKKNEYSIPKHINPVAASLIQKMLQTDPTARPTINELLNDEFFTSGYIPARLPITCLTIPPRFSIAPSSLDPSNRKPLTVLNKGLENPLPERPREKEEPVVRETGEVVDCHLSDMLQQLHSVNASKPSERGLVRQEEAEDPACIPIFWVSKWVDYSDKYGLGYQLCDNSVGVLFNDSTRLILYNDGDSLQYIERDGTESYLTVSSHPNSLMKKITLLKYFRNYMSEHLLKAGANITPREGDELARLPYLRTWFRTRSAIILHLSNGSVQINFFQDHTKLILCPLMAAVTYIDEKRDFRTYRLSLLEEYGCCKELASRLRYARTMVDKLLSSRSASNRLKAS
Protocol: as §1, §2, §3, §4

CDK9 = CDK9 (Homo sapiens (Human), UniProt P50750); assay: Carna Biosciences kinase assay, CDK9; format: biochemical
Sequence of CDK9 (P50750 whole entry): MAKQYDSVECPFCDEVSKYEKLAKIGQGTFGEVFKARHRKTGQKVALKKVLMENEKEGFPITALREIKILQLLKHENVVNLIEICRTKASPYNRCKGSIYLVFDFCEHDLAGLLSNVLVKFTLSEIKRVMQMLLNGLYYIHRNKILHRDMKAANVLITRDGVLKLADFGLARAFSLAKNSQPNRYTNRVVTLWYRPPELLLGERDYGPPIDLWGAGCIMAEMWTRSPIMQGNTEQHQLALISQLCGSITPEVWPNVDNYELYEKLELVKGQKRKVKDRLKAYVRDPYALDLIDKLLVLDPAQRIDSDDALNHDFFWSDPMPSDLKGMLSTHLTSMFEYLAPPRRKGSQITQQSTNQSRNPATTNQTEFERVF
Sequence of CDK9 (O60563 whole entry partner): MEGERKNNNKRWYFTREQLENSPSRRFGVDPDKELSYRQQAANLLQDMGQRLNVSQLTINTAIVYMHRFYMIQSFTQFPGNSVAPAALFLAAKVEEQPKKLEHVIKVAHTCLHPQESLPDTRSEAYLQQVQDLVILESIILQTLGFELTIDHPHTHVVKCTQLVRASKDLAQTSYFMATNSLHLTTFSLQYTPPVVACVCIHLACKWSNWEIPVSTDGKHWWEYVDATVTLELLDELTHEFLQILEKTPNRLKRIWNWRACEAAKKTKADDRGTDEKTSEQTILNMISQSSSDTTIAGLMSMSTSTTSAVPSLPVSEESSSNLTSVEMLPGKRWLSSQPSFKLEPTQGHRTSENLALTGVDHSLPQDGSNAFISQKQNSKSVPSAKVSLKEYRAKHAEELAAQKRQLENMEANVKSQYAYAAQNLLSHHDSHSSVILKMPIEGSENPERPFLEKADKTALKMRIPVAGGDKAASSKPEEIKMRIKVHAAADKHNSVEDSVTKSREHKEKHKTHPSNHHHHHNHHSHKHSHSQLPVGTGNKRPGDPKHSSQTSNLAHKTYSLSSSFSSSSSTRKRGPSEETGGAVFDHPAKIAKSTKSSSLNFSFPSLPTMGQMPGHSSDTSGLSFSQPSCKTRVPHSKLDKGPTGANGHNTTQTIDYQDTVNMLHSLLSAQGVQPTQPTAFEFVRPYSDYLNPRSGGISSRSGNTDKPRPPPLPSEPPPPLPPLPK
Protocol: as §1, §2, §3, §4

[1] = tested on: TCF/LEF reporter in HEK293-pBARL cells; assay: cells
Protocol: (§5) HEK293-pBARL cells were derived from HEK293 cells and they stably expressed a firefly-luciferase reporter gene driven by a promoter containing 12 copies of TCF/LEF binding sequences. These cells were maintained in DMEM and supplemented with 10% FBS and 1% penicillin-streptomycin (Invitrogen). Reporter gene assays were conducted in anti-biotic free media. […] These cells also contained a renilla-luciferase reporter gene driven by the ubiquitous EF1α promoter as a control. HEK293-pBarl reporter cell lines were seeded into 384-well culture plates (Corning) at 6000 cells/well. 24 hours after plating, cells were treated overnight with relevant compounds and assayed using DualGlo assay kit (Promega). Luminescent intensities were read by EnVision (PerkinElmer, Waltham, Mass.). Firefly luciferase intensity is normalized by renilla luciferase intensity.
(§6) Cells were cultured in 384 well plates to appropriate density (40 μl total plating volume). 24 hours after plating, cells were treated with 100 nl compounds. 24 hours after incubation with compounds (48 hours after plating), assay reagents were prepared by mixing Luciferase Assay solution with Luciferase substrate and Stop & Glo solution to Stop & Glo substrate (extra reagents can be aliquoted and frozen for future use and are stable for at least one freeze/thaw cycle). […] The plate was spun down and 10 minutes were allowed for signal stabilization. Luciferase signal on the Perkin Elmer EnVision using the following parameters: Distance between plate & detector (mm)=0.2; Measurement time(s)=0.1; Glow (CT2) correction factor=0. Once the initial data is secure, a volume of Stop & Glo was added equal to each well equal to the volume of Luciferase reagent added above (If 10 μl Luciferase Reagent was added, 10 μl Stop & Glo was also added). The plate was spun down and 10 minutes were allowed for signal stabilization. The plate was read on the EnVision using the same parameters detailed above.

[2] = M (mouse)
CDK5 = CDK5 (Homo sapiens (Human), UniProt Q00535); assay: Carna Biosciences kinase assay, CDK5; format: biochemical
Sequence of CDK5 (Q00535 whole entry): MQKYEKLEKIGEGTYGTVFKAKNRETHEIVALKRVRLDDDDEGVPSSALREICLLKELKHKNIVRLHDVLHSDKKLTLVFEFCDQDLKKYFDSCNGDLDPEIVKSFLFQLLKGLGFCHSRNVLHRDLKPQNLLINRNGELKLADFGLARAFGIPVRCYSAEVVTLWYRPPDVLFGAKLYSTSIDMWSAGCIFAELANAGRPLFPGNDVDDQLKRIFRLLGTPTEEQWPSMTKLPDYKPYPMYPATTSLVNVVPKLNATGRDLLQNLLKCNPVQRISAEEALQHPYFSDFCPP
Sequence of CDK5 (Q15078 99-307 partner): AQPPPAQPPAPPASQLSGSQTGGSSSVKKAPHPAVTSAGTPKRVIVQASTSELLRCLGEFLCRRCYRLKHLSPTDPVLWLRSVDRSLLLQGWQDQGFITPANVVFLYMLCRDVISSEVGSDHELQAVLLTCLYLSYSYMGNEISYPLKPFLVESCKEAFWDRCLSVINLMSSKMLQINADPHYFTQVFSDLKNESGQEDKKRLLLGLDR
Protocol: as §1, §2, §3, §4
(§7) The assay utilized was identical to that of the single point inhibitory activity determination (MSA) but run in dose response. […] A solution of termination buffer (QuickScout Screening assist MSA; Carna Biosciences) (60 μL) was added to each well. The entire reaction mixture was then applied to a LabChip3000 system (Caliper Life Science) and the product and substrate peptide peaks were separated and quantified.

Erk5 = Erk5 (Homo sapiens (Human), UniProt Q13164); assay: Carna Biosciences kinase assay, Erk5; format: biochemical
Sequence of Erk5 (Q13164 whole entry): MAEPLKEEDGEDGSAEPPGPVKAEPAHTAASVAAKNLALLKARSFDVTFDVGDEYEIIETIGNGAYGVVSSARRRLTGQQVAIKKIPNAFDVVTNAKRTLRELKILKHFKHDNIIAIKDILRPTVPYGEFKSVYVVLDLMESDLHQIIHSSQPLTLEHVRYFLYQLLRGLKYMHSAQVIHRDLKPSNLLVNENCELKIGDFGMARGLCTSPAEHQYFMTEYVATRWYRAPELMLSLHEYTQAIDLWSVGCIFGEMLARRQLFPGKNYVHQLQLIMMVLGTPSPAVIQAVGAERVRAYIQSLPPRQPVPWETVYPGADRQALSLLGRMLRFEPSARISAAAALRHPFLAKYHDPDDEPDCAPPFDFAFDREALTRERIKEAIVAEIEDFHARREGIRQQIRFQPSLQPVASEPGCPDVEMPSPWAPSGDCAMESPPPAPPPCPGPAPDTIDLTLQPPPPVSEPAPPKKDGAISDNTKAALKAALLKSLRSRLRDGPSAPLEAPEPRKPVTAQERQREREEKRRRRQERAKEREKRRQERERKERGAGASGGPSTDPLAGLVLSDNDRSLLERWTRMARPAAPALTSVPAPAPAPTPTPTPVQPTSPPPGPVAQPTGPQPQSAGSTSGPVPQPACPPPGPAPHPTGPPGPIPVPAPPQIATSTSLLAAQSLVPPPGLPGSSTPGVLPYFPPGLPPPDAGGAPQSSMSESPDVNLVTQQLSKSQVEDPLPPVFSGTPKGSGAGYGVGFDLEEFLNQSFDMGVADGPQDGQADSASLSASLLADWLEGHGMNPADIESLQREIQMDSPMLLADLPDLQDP
Protocol: as §1, §2, §3, §4

GSK3β [3] = target: T1, GSK3β (Homo sapiens (Human), UniProt P49841); assay: biochemical
T1 sequence (P49841 whole entry): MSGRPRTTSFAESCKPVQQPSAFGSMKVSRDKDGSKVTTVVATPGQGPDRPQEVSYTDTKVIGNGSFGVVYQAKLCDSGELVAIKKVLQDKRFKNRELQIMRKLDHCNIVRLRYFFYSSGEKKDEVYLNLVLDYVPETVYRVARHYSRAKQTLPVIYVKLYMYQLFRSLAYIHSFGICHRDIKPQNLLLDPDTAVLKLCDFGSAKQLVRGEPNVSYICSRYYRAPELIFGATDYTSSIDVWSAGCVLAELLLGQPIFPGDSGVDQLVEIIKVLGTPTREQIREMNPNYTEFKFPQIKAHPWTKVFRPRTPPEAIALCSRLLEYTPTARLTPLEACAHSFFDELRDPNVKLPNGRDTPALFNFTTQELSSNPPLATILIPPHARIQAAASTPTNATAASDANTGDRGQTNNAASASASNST

GSK3α [4] = target: T2, GSK3α (Homo sapiens (Human), UniProt P49840); assay: biochemical
T2 sequence (P49840 whole entry): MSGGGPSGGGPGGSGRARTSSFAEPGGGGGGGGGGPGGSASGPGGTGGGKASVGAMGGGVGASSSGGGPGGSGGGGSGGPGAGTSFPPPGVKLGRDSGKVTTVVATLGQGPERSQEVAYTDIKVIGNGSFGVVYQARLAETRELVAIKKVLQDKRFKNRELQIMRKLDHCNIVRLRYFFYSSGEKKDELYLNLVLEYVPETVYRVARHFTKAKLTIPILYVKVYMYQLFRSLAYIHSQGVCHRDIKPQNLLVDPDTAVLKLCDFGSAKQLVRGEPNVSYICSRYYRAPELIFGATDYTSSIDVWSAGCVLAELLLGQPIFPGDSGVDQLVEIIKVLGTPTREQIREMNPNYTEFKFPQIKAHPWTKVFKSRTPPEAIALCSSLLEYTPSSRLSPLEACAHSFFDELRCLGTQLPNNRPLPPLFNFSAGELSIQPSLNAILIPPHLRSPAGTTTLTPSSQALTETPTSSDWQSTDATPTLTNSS

GSK3α [5] = target: T2, GSK3α
GSH stability = format: physicochemical; conditions: 48 hours
Protocol: Stability was determined in the presence of PBS pH […] and 50 μM glutathione with 0.1% DMSO. Each compound was prepared in duplicate on six separate plates and allowed to equilibrate at room temperature with a 250 rpm orbital shake for 48 hours. One plate was removed at each time point (0, 2, 4, 8, 24, and 48 hours). […] Additionally, to the remaining material at each time point, acetonitrile was added to force dissolution of compound (to test for recovery of compound). An aliquot of this was also analyzed by UPLC-MS.

CDK2/CycA2 = CDK2/CycA2 (Homo sapiens (Human), UniProt P24941); assay: Carna Biosciences kinase assay, CDK2/CycA2; format: biochemical; conditions: read-out: % Inhibition at 10 μM, CDK2/CycA2
Protocol: as §1, §2, §3, §4, §7

[6] = tested on: phospho-Tau (Ser199) in SH-SY5Y cells; assay: Tau phosphorylation (Ser199) ELISA in SH-SY5Y cells; format: cell-based, human; conditions: Homo sapiens, SH-SY5Y, read-out: p-Tau (μM)
Protocol: Tau Phosphorylation and Total Tau Assay
SH-SY5Y cells were maintained in DMEM supplemented with 10% heat-inactivated FBS and 1% penicillin-streptomycin (Invitrogen) unless otherwise stated. ELISA kits for phospho-Tau (Ser199) and total Tau detection were purchased from Invitrogen (KHB0041, and KHB7041 respectively). Briefly, SH-SY5Y cells were seeded at 50,000 cells/200 μL/well in 96 well plates and after overnight incubation, treated with various doses of chemical compounds at 0.2 μL/well. The next day cells were washed with PBS twice before being lysed in 100 μL Lysis buffer/well. […]
A standard protocol using an immunoassay kit to quantify total Tau protein and phospho-Tau (Ser199) protein in SH-SY5Y human neuroblastoma cells was employed. […]
Well strips were warmed and inserted into the frame. […] Samples were loaded to each well that would be analyzed for total Tau, 85 μl standard diluent buffer and 15 μl cell lysate were added. To each well that will be analyzed for pTau (Ser199) 50 μl standard diluent buffer+50 μl cell lysate were added. […] Anti-total Tau was added to wells being analyzed for total Tau, anti-pTau (Ser199) was added to wells being analyzed for pTau (Ser199), and plates were tapped gently on the side to mix. […] Absorbance of each well was read at 450 nm (within 2 hours of adding stop solution).

[7] = tested on: β-catenin nuclear translocation in U2-OS cells; assay: β-Catenin nuclear localization assay; format: cell-based
Protocol: β-Catenin Nuclear Localization Assay
U2-OS cells stably expressing two complimentary β-galactosidase fragments (one part on β-Catenin and the other constitutively expressed in the cell nucleus) were maintained in DMEM F12 supplemented with 10% FBS. When β-catenin translocates to the nucleus, the complimentary fragments form a complete β-galactosidase, the amount of which is then quantified by β-galactosidase activity (DiscoveRx). Cells were seeded in a 384-well CulturPlate (Perkin Elmer, Boston, Mass.) with 10,000 per well in 20 μL DMEM F12 containing 10% FCS, 100 U/ml penicillin and 100 μg/mL streptomycin. After overnight incubation at 37° C., cells were stimulated with 100 mL test compound/well and then returned to the incubator for 6 h. Cells were disrupted using 12 μL substrate-containing lysis buffer from the PathHunter Detection Kit in the formulation specified by the supplier (DiscoveRx). Plates were incubated in the dark for 1 h at room temperature before measurement of P3-galactosidase activity (luminescence) on an EnVision plate reader (PerkinElmer, Waltham, Mass.).

GSK3β [8] = target: T1, GSK3β
GSK3β [9] = target: T1, GSK3β; assay: biochemical; remark: listed apart in the source
[10] = tested on: TCF/LEF reporter in HEK293-pBARL cells; conditions: read-out: TCF/LEF EC50
Protocol: as §5, §6

SH-SY5Y cells = assay: Cellular toxicity in SH-SY5Y cells; conditions: highest testing concentration of 30 μM
Protocol: Biochemical characterization of these synthesized compounds were assayed against GSK3β and CDK5/p25, with CDK5/p25 serving as a counter target of GSK3β selectivity. […] The effects of these compounds on survival of SH-SY5Y pathophysiology cells were also monitored.

in vitro = conditions: mouse, mouse plasma, pH 7.4
Protocol: Plasma protein binding was determined by equilibrium dialysis using the Rapid Equilibrium Dialysis (RED) device (Pierce Biotechnology, Rockford, Ill.) for both human and mouse plasma. […] Compounds were incubated at 37° C. for 5 hours with a 250 rpm orbital shake.

PBS stability = format: physicochemical; conditions: 48 hours of incubation, acetonitrile recovery
Protocol: Stability was determined in the presence of PBS pH 7.4 with 0.1% DMSO. Each compound was prepared in duplicate on six separate plates and allowed to equilibrate at room temperature with a 250 rpm orbital shake for 48 hours. One plate was removed at each time point (0, 2, 4, 8, 24, and 48 hours). […] Additionally, to the remaining material at each time point, acetonitrile was added to force dissolution of compound (to test for recovery of compound). An aliquot of this was also analyzed by UPLC-MS.

[11] = mouse plasma, 5 hours
Protocol: Plasma stability was determined at 37° C. at 5 hours in both human and mouse plasma. […] Compounds were incubated at 37° C. for 5 hours with a 250 rpm orbital shake with time points taken at 0 and 5 hours.

CDK2/CycE1 = CDK2/CycE1 (Homo sapiens (Human), UniProt P24941); assay: Carna Biosciences kinase assay, CDK2/CycE1; format: biochemical; conditions: read-out: % Inhibition at 10 μM, CDK2/CycE1
Protocol: as §1, §2, §3, §4, §7

physchem = conditions: phosphate buffered saline (PBS) with 1% DMSO, 23 °C, pH 7.4, aqueous buffer, kinetic from dmso stock
[12] = Plasma protein binding (equilibrium dialysis), human plasma; format: in vitro ADME
Protocol: Plasma protein binding was determined by equilibrium dialysis using the Rapid Equilibrium Dialysis (RED) device (Pierce Biotechnology, Rockford, Ill.) for both human and mouse plasma. Each compound was prepared in duplicate at 5 μM in plasma (0.95% acetonitrile, 0.05% DMSO) and added to one side of the membrane (200 μl) with PBS pH 7.4 added to the other side (350 μl). Compounds were incubated at 37° C. for 5 hours with a 250 rpm orbital shake.

GSK3β [13] = target: T1, GSK3β; remark: listed apart in the source
Protocol: GSK3β Microfluidic Mobility-Shift Assay
Reactions were terminated by the addition of 10 mM EDTA. Substrate and product were separated electrophoretically and fluorescence intensity of the substrate and product was determined by Labchip EZ Reader II (Caliper Life Sciences, MA). The kinase activity was measured as percent conversion. The reactions were performed in duplicate for each sample. […] The results were analyzed by Genedata Assay Analyzer. The percent inhibition was plotted against the compound concentration and the IC50 value was determined from the logistic dose-response curve fitting.

GSK3α [14] = target: T2, GSK3α; conditions: read-out: IC50 (μM), GSK3α
[15] = tested on: amphetamine-induced hyperactivity in mice; assay: Amphetamine-induced hyperactivity (AIH); format: in vivo, mouse; conditions: intracerebroventricular injection, vs vehicle
GSK3β [16] = target: T1, GSK3β; remark: listed apart in the source
GSK3β [17] = target: T1, GSK3β; conditions: read-out: IC50 (μM), GSK3β

Sequence of LIMK1 (P53667 whole entry): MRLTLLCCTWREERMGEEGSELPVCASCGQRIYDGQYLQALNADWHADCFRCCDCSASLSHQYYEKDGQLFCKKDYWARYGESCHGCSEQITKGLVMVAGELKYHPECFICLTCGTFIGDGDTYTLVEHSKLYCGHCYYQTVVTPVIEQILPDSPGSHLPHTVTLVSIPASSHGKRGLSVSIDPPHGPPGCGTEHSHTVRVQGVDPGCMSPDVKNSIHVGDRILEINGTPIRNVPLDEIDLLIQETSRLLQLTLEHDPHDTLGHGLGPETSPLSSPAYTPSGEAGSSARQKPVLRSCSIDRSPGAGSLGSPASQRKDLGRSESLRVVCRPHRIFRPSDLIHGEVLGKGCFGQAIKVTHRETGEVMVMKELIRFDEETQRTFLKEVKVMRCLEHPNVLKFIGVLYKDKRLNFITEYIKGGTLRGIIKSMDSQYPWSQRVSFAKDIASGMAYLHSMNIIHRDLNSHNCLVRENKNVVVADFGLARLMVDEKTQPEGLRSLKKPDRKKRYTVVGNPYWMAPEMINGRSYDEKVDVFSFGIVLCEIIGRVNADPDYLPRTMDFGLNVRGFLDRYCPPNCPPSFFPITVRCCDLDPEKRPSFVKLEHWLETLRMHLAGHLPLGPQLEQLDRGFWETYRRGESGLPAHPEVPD

For Cc1c[nH]c(-c2cnc(NCCNc3ccc(C#N)cn3)nc2-c2ccc(Cl)cc2Cl)n1 [CHIR99021], the “% Inhibition at 10 μM, LIMK1” value (LIMK1) was 78.9%, the “% Inhibition at 10 μM, LIMK1” value (LIMK1; listed as CHIR 99021) was “greater than 50%” and the “number of kinases inhibited greater than 50% at 10 μM” value (panel of 311 kinases; 10 μM, 311 kinases) was 21 kinases. For the same compound, the “% Inhibition at 10 μM, PLK1” value (PLK1) was 59.2%, the “% Inhibition at 10 μM, CDK9” value (CDK9) was 88.1% and the “% Inhibition at 10 μM, CDK9” value (CDK9; listed as CHIR 99021) was “greater than 50%”. The EC50 ([1]; read-out: TCF/LEF (μM)) was 6 µM, the “Microsomal Stability (M:)” value [2] was “M: 4%” and the “% Inhibition at 10 μM, CDK5” value (CDK5; 10 μM) was 51.2%. The “% Inhibition at 10 μM, Erk5” value (Erk5) was 61.3%.
With COc1ccccc1[C@@H]1C2=C(CC(C)(C)CC2=O)Nc2n[nH]c(C(F)(F)F)c21 [Compound 54, (R)-4-(2-methoxyphenyl)-7,7-dimethyl-3-(trifluoromethyl)-6,7,8,9-tetrahydro-2H-pyrazolo[3,4-b]quinolin-5(4H)-one] the IC50 (GSK3β [3]) was less than 0.1 µM, the IC50 (GSK3β [3]; IC50 ADP Glo GSK3β (μM)) was 0.02 µM and the IC50 (GSK3β [3]; IC50 against GSK3β at 7 μM ATP) was 0.024 µM. The IC50 (GSK3β [3]; IC50 against GSK3β at 100 μM ATP) was 0.143 µM, the IC50 (GSK3β [3]; Target IC50 (nM), GSK3β) was 0.024 µM and the IC50 (GSK3α [4]) was 13 nM. The IC50 (GSK3α [5]) was less than 100 nM, the “stability in glutathione (GSH), % remaining” value (GSH stability) was 99% and the inhibition at 10 µM (CDK2/CycA2) was 78.7%. The “% of the kinome (311 kinases) inhibited” value (panel of 311 kinases) was 2.6%, the IC50 [6] was 1.03 µM and the EC50 ([7]; Homo sapiens, U2OS, read-out: beta-Catenin Translocation (μM)) was 5.28 µM. The EC50 ([7]; read-out: beta-Catenin translocation EC50) was 6.97 µM, the IC50 (GSK3β [8]; read-out: IC50 ADP Glo GSK3β) was 20 nM and the IC50 (GSK3β [9]) was 12 nM. For the same compound, the EC50 [10] was 5350 nM, the “cellular toxicity in SH-SY5Y cells” value (SH-SY5Y cells) was “no cellular toxicity” and the fraction unbound at 5 h, 5 µM (in vitro) was 0.09. For the same compound, the “stability in PBS, % still present” value (PBS stability) was “more than 95%”, the “Plasma stability % remaining (in mice)” value [11] was 99% and the EC50 ([1]; read-out: TCF/LEF (μM)) was 4.8 µM. The EC50 ([1]; read-out: TCF/LEF EC50 (μM)) was 5 µM, the inhibition at 10 µM (CDK2/CycE1) was 73.5% and the “Microsomal Stability (M:)” value [2] was “M: 0%”. The solubility at 24 h (physchem) was 85 µM (≈ 33.3 µg/mL), the “Plasma protein binding % bound, human plasma” value [12] was 93% and the fraction unbound at 5 h, 5 µM ([12]; human, pH 7.4, read-out: Plasma protein binding % bound, human plasma (converted)) was 0.07. The IC50 (GSK3β [13]) was less than 100 nM.
Compound COc1ccccc1[C@@H]1C2=C(CC(C)(C)CC2=O)Nc2n[nH]c(C)c21 [Compound 22] has an IC50 (GSK3α [5]) of less than 100 nM, an IC50 (GSK3β [8]) of less than 100 nM and an IC50 (GSK3α [14]) of 0.027 µM. For the same compound, the “effect on amphetamine-induced hyperactivity, ICV injection” value [15] was “attenuate amphetamine-induced hyperactivity”, the “mode of inhibition (Lineweaver-Burk plot)” value (GSK3β [16]) was “competitive inhibition” and the IC50 (GSK3β [17]) was 0.061 µM. The IC50 (CDK5; dose response) was 1.4 µM.
